Test results: patent publication US6083964A, “Optical resolution of racemic aminoalkylpyridine anticonvulsants and (+) aminoalkylpyridine enantiomers as highly potent orally effective anticonvulsant drugs and excitatory amino acid antagonists” (K and K Biosciences, Inc., priority 1999, dated 2000)
Like-named read-outs stand apart in the source and are kept apart here.

Tests used:
[1] = test system: maximal electroshock seizure (MES) in mice; experiment: Maximal electroshock seizure (MES) test, mice, i.p.; type: in vivo, mouse (male Carworth Farms #1); details: for ED50: MES test; for P.I. (protective index, TD50/ED50) / % protection: MES; for % protection: 100 mg/kg
From the text: The (+) AAP enantiomers obtained by optical resolution of racemic AAPs and the resulting highly orally effective anticonvulsant compositions of this invention are useful in the treatment of convulsive disorders. […] A series of (+) AAP enantiomers and (-) AAP enantiomers of this invention has been evaluated for anticonvulsant activity by the intraperitoneal (i.p.) and by the oral (p.o.) route using two standard seizure models in the mouse and in the rat, the maximal electroshock seizure (MES) test and the subcutaneous pentylenetetrazol (Metrazole) seizure threshold (scMet) test. […] The following Table 2 presents the results of these anticonvulsant tests with respect to several (+) and (-) AAP enantiomeric compounds derived from optical resolution of racemic AAPs of the present invention. This Table 2 identifies the specific compounds tested by their chemical name and provides the test model, the route of administration, the animal species used, and the anticonvulsant activity and toxicity in terms of ED50 and TD50 values, (the median effective and toxic dose respectively), when intraperitoneally administered to mice, and when orally administered to rats. In mice, i.p.: All compounds are emulsified in 0.5% methylcellulose. The solvent has been tested for anticonvulsant and toxic effects and found to introduce no significant bias into the testing of anticonvulsant activity. The compounds are administered intraperitoneally in a volume of 0.01 ml/gm to male Carworth Farms #1 mice weighing about 20 gm. All compounds are tested at least at three dose levels (30, 100 and 300 mg/kg) at 30 minutes and 4 hours after their administration. The Maximal Electroshock Seizure Test (MES): Maximal electroshock seizures are elicited with a 60 Hz alternating current of 50 mA intensity in mice and about 150 mA intensity in rats (5-7 times that necessary to elicit minimal electroshock seizures), delivered for 0.2 sec via corneal electrodes. A drop of 0.9% saline is instilled in the eye prior to application of the electrodes in order to […]. Abolition of the hind limb tonic extension component of the seizure is defined as protection and results are expressed as number of animals protected/number of animals tested. The Subcutaneous Pentylenetetrazol (Metrazole) Seizure Threshold Test (scMet): A 0.5% solution of 85 mg/kg of pentylenetetrazol is administered subcutaneously in the posterior midline 30 minutes or 4 hours after drug administration to the animal. […] Anticonvulsant Quantification in Mice i.p.: The ED50 values are determined in the MES, scMet and rotorod ataxia test. To determine the ED50 values, five logarithmically spaced doses of the test compound are administered to animals (male Carworth Farms #1 mice) in groups of eight, to cover 0-100% protection, and the dose required to protect 50% of the animals (ED50) together with its 95% confidence limits, is determined graphically.

[2] = test system: maximal electroshock seizure (MES) in rats; experiment: Maximal electroshock seizure (MES) test, rats, p.o.; type: in vivo, rat (Sprague-Dawley); details: for % protection (lowest and highest) during 4 hour period: 4 rats per point; for ED50: Rattus norvegicus, po, MES test, read-out: ED50
From the text: The (+) AAP enantiomers obtained by optical resolution of racemic AAPs and the resulting highly orally effective anticonvulsant compositions of this invention are useful in the treatment of convulsive disorders. […] A series of (+) AAP enantiomers and (-) AAP enantiomers of this invention has been evaluated for anticonvulsant activity by the intraperitoneal (i.p.) and by the oral (p.o.) route using two standard seizure models in the mouse and in the rat, the maximal electroshock seizure (MES) test and the subcutaneous pentylenetetrazol (Metrazole) seizure threshold (scMet) test. […] The following Table 2 presents the results of these anticonvulsant tests with respect to several (+) and (-) AAP enantiomeric compounds derived from optical resolution of racemic AAPs of the present invention. This Table 2 identifies the specific compounds tested by their chemical name and provides the test model, the route of administration, the animal species used, and the anticonvulsant activity and toxicity in terms of ED50 and TD50 values, (the median effective and toxic dose respectively), when intraperitoneally administered to mice, and when orally administered to rats. The Maximal Electroshock Seizure Test (MES): Maximal electroshock seizures are elicited with a 60 Hz alternating current of 50 mA intensity in mice and about 150 mA intensity in rats (5-7 times that necessary to elicit minimal electroshock seizures), delivered for 0.2 sec via corneal electrodes. A drop of 0.9% saline is instilled in the eye prior to application of the electrodes in order to […]. Abolition of the hind limb tonic extension component of the seizure is defined as protection and results are expressed as number of animals protected/number of animals tested. The Subcutaneous Pentylenetetrazol (Metrazole) Seizure Threshold Test (scMet): A 0.5% solution of 85 mg/kg of pentylenetetrazol is administered subcutaneously in the posterior midline 30 minutes or 4 hours after drug administration to the animal. […] This species will be the subject of the complete anticonvulsant quantification test evaluation as described above, but after oral (gavage) administration of the candidate compound.

[3] = test system: neurotoxicity (rotorod ataxia) in mice; experiment: Neurotoxicity, rotorod ataxia test, mice, i.p.; set-up: species or system mouse (male Carworth Farms #1); details: mouse, in vivo, ip
Protocol: Neurotoxicity is determined by the rotorod ataxia test in mice and by the positional sense test and gait and stance test in the rat. The following Table 2 presents the results of these anticonvulsant tests with respect to several (+) and (-) AAP enantiomeric compounds derived from optical resolution of racemic AAPs of the present invention. This Table 2 identifies the specific compounds tested by their chemical name and provides the test model, the route of administration, the animal species used, and the anticonvulsant activity and toxicity in terms of ED50 and TD50 values, (the median effective and toxic dose respectively), when intraperitoneally administered to mice, and when orally administered to rats. In mice, i.p.: All compounds are emulsified in 0.5% methylcellulose. The solvent has been tested for anticonvulsant and toxic effects and found to introduce no significant bias into the testing of anticonvulsant activity. The compounds are administered intraperitoneally in a volume of 0.01 ml/gm to male Carworth Farms #1 mice weighing about 20 gm. All compounds are tested at least at three dose levels (30, 100 and 300 mg/kg) at 30 minutes and 4 hours after their administration. Neurotoxicity is evaluated in mice by the rotorod ataxia test. The animal is placed on a wooden rod of 1 and 1/8 diameter rotating at 6 rpm. Normal mice can remain on a rod rotating at this speed indefinitely. […] Anticonvulsant Quantification in Mice i.p.: The ED50 values are determined in the MES, scMet and rotorod ataxia test. To determine the ED50 values, five logarithmically spaced doses of the test compound are administered to animals (male Carworth Farms #1 mice) in groups of eight, to cover 0-100% protection, and the dose required to protect 50% of the animals (ED50) together with its 95% confidence limits, is determined graphically.

[4] = Neurological deficit, positional sense test and gait and stance test, rats, p.o.; set-up: species or system rat (Sprague-Dawley); details: rat, in vivo, po
Protocol: Neurotoxicity is determined by the rotorod ataxia test in mice and by the positional sense test and gait and stance test in the rat. The following Table 2 presents the results of these anticonvulsant tests with respect to several (+) and (-) AAP enantiomeric compounds derived from optical resolution of racemic AAPs of the present invention. This Table 2 identifies the specific compounds tested by their chemical name and provides the test model, the route of administration, the animal species used, and the anticonvulsant activity and toxicity in terms of ED50 and TD50 values, (the median effective and toxic dose respectively), when intraperitoneally administered to mice, and when orally administered to rats. […] This species will be the subject of the complete anticonvulsant quantification test evaluation as described above, but after oral (gavage) administration of the candidate compound. […] Neurological deficit in rats is examined by the positional sense test and gait and stance test. […] Inability to do so rapidly indicates a neurologic deficit. In the gait and stance test, a neurologic deficit is indicated by a circular or a zigzag gait, ataxia, abnormal spread of the legs, abnormal body posture, tremor, hyperactivity, lack of exploratory behavior, somnolence, stupor, or catalepsy.

[5] = rat, p.o. for racemic AAPs, MES

CC(Nc1ccc(Br)cc1)c1ccncc1 (single isomer, unassigned; (-)) [Compound 12, (-) N-(4-Bromophenyl)-1-(4-pyridyl)ethylamine]
ED50 ([1]; listed as (6) (-) Enantiomer): 85.5 mg/kg | P.I. (protective index, TD50/ED50) ([1]; listed as (6) (-) Enantiomer): 3.4 | % protection (lowest and highest) during 4 hour period ([2]; rat, p.o., 30 mg/kg, 5 time points 0.25-4 hours, MES): 25-75% | TD50 [3]: 287.6 mg/kg

CCC(Nc1ccc(Cl)cc1)c1ccncc1 (racemic) [N-(4-Chlorophenyl)-1-(4-pyridyl)propylamine, reference compound]
ED50 ([2]; p.o. for racemic AAPs): 25 mg/kg | P.I. (protective index, TD50/ED50) [2, 5]: > 20 | TD50 [4]: > 500 mg/kg

CC(Nc1ccc(Cl)c(Cl)c1)c1ccncc1 (racemic) [N-(3,4-Dichlorophenyl)-1-(4-pyridyl)ethylamine, reference compound]
P.I. (protective index, TD50/ED50) [2, 5]: > 16.8 | TD50 [4]: > 500 mg/kg

CC(Nc1ccc(Cl)c(Cl)c1)c1ccncc1 (single isomer, unassigned; (-)) [Compound 6, (-) N-(3,4-Dichlorophenyl)-1-(4-pyridyl)ethylamine]
ED50 ([1]; listed as (3) (-) Enantiomer): 125.4 mg/kg | P.I. (protective index, TD50/ED50) ([1]; listed as (3) (-) Enantiomer): 2.2 | % protection (lowest and highest) during 4 hour period ([2]; rat, p.o., 30 mg/kg, 5 time points 0.25-4 hours, MES, listed as (3) (-) Enantiomer): 25-75% | TD50 [3]: 279.2 mg/kg

CC(Nc1cccc(Cl)c1)c1ccncc1 (single isomer, unassigned; (+)) [Compound 3, (+) N-(3-Chlorophenyl)-1-(4-pyridyl)ethylamine]
% protection ([1]; listed as (2) (+) Enantiomer): 67% | % protection (lowest and highest) during 4 hour period ([2]; rat, p.o., 30 mg/kg, 5 time points 0.25-4 hours, MES, listed as (2) (+) Enantiomer, 30 mg/kg): 25-75%

CC(Nc1ccc(Br)cc1)c1ccncc1 (single isomer, unassigned; (+)) [Compound 11, (+) N-(4-Bromophenyl)-1-(4-pyridyl)ethylamine]
ED50 ([1]; listed as (6) (+) Enantiomer): 34.7 mg/kg | P.I. (protective index, TD50/ED50) ([1]; listed as (6) (+) Enantiomer): 3.9 | ED50 ([2]; p.o.): 9.3 mg/kg | P.I. (protective index, TD50/ED50) ([2]; rat, p.o., MES): > 53.7 | TD50 [4]: > 500 mg/kg | TD50 [3]: 133.9 mg/kg

CCC(Nc1ccc(Cl)cc1)c1ccncc1 (single isomer, unassigned; (-)) [Compound 8, (-) N-(4-Chlorophenyl)-1-(4-pyridyl)propylamine]
ED50 ([1]; listed as (4) (-) Enantiomer): 118.9 mg/kg | P.I. (protective index, TD50/ED50) ([1]; listed as (4) (-) Enantiomer): 2.3 | % protection (lowest and highest) during 4 hour period ([2]; rat, p.o., 30 mg/kg, 5 time points 0.25-4 hours, MES, listed as (4) (-) Enantiomer): 25-100% | TD50 [3]: 269.4 mg/kg

CCC(Nc1ccc(Cl)c(Cl)c1)c1ccncc1 (racemic) [N-(3,4-Dichlorophenyl)-1-(4-pyridyl)propylamine, reference compound]
% protection (lowest and highest) during a 4-hour period ([2]; rat, p.o. for racemic AAPs, 30 mg/kg, 5 time points 0.25-4 hours, MES): 0-50%

CC(Nc1cccc(Cl)c1)c1ccncc1 (racemic) [N-(3-Chlorophenyl)-1-(4-pyridyl)ethylamine, reference compound]
ED50 ([2]; p.o. for racemic AAPs): 34 mg/kg | P.I. (protective index, TD50/ED50) [2, 5]: > 14.7 | TD50 [4]: > 500 mg/kg

CC(Nc1ccc(Cl)cc1)c1ccncc1 (racemic) [N-(4-Chlorophenyl)-1-(4-pyridyl)ethylamine, reference compound]
ED50 ([2]; p.o. for racemic AAPs): 22.9 mg/kg | P.I. (protective index, TD50/ED50) [2, 5]: > 20.5 | TD50 [4]: > 470 mg/kg

CC(Nc1cccc(Cl)c1)c1ccncc1 (single isomer, unassigned; (-)) [Compound 4, (-) N-(3-Chlorophenyl)-1-(4-pyridyl)ethylamine]
% protection ([1]; listed as (2) (-) Enantiomer): 33% | ED50 ([2]; p.o.): 29.6 mg/kg | % protection (lowest and highest) during 4 hour period ([2]; rat, p.o., 30 mg/kg, 5 time points 0.25-4 hours, MES, listed as (2) (-) Enantiomer): 50-100% | P.I. (protective index, TD50/ED50) ([2]; rat, p.o., MES): > 2.1 | TD50 [4]: > 62.5 mg/kg

CC(Nc1ccc(Br)cc1)c1ccncc1 (racemic) [N-(4-Bromophenyl)-1-(4-pyridyl)ethylamine, reference compound]
ED50 ([2]; p.o. for racemic AAPs): 20.9 mg/kg | P.I. (protective index, TD50/ED50) [2, 5]: > 23.9 | TD50 [4]: > 500 mg/kg

CCC(Nc1ccc(Cl)c(Cl)c1)c1ccncc1 (single isomer, unassigned; (-)) [Compound 10, (-) N-(3,4-Dichlorophenyl)-1-(4-pyridyl)propylamine]
ED50 ([1]; listed as (5) (-) Enantiomer): 117.3 mg/kg | P.I. (protective index, TD50/ED50) ([1]; listed as (5) (-) Enantiomer): 2.3 | % protection (lowest and highest) during 4 hour period ([2]; rat, p.o., 30 mg/kg, 5 time points 0.25-4 hours, MES, listed as (5) (-) Enantiomer): 25-100% | TD50 [3]: 275.2 mg/kg
